34 molecules from PubChem BioAssay (NCI) can be followed below.

Molecules are shown by their SMILES. Where “and” joins values, the source holds several entries; their conditions need not be identical. Equal values may be shown once.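 Values below derive from 48-hour exposures of cells grown in 96-well plates, with endpoints linearly interpolated between the two concentrations bracketing the appropriate inhibition level. GI50 = concentration required for 50% inhibition of growth. The concentration for full growth arrest is given as TGI.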 Where only a bound is given, the exact number is not on record here.

Some test systems named below: SR leukemia; RPMI-8226 leukemia; EKVX NSCLC; A549 NSCLC; UO-31 renal.
What all share (assay): growth of human tumour cells (NCI), 48 h

As for `Cn1cccc1-c1ccc(-c2ccc(CO)[se]2)[se]1`, the TGI was 56.9 µM in the experiment on SR leukemia; 47.7 µM with RPMI-8226 leukemia; more than 100 µM with EKVX NSCLC; more than 100 µM with A549 NSCLC; 96.9 µM in the experiment on UO-31 renal.
For the molecule `CCC1(O)CC(OC2CC(N(C)C)C(OC3CC(O)C(OC4OC(C)C(=O)C=C4N)C(C)O3)C(C)O2)c2c(cc3c(c2O)C(=O)c2c(O)cccc2C3=O)C1C(=O)OC` (stereo not drawn), the TGI in the experiment on SR leukemia was 1.06 µM; in the experiment on RPMI-8226 leukemia, 0.154 µM and 0.0597 µM; in the experiment on EKVX NSCLC it was 0.539 µM and 1.43 µM; in the experiment on A549 NSCLC it was 1.63 µM; with UO-31 renal, 0.96 µM and 0.809 µM. For the same molecule, the values for the GI50 with EKVX NSCLC and in the experiment with UO-31 renal were 0.0327 µM and 0.106 µM, respectively.
For `O=C(COc1ccc(OCC(=O)N2C(=O)CC(=O)N(c3ccc(Cl)cc3)C2=S)cc1)N1C(=O)CC(=O)N(c2ccc(Cl)cc2)C1=S`, the TGI in the experiment on RPMI-8226 leukemia, with EKVX NSCLC, in the experiment with A549 NSCLC and with UO-31 renal was more than 100 µM throughout.
For the molecule `COC(C/C(=C/CO[Si](C(C)C)(C(C)C)C(C)C)C(=O)N(COCC[Si](C)(C)C)c1ccccc1I)OC`, the TGI in the experiment with SR leukemia, in the experiment on RPMI-8226 leukemia, in the experiment with A549 NSCLC and in the experiment with UO-31 renal was more than 100 µM throughout.
As to `ClC(Cl)(Cl)C1CCOC1n1nnc2ccccc21` (stereo not drawn), the TGI with EKVX NSCLC and with A549 NSCLC was more than 100 µM throughout.
On to `COC(=O)[C@H](Cc1c[nH]c2ccccc12)NP(=O)(OCCC#N)OCC1OC(n2cc(C)c(=O)[nH]c2=O)CC1N=[N+]=[N-]` (stereo partly drawn), for which the TGI with RPMI-8226 leukemia, in the experiment on EKVX NSCLC, with A549 NSCLC and in the experiment with UO-31 renal was more than 100 µM throughout.
On to `CC(=O)O[C@H]1CC[C@@]2(C)C(=CC[C@@H]3[C@@H]2CC[C@]2(C)C(=N/O)/C(=C\c4ccccc4)C[C@@H]32)C1`, for which the TGI with SR leukemia is more than 42.3 µM; in the experiment with RPMI-8226 leukemia, more than 100 µM; in the experiment with EKVX NSCLC, 51.2 µM; in the experiment with A549 NSCLC it was 97.5 µM; in the experiment with UO-31 renal it was more than 59.2 µM.
For `Cc1c(CNc2ccc(C(=O)NC(CCCNC(=O)c3ccccc3C(=O)O)C(=O)O)cc2)cnc2nc(N)nc(N)c12` (stereo not drawn), the GI50 in the experiment on RPMI-8226 leukemia was 0.0216 µM; in the experiment on EKVX NSCLC, 0.0834 µM. In addition, the TGI in the experiment with RPMI-8226 leukemia, in the experiment on EKVX NSCLC and with A549 NSCLC was more than 100 µM each time.
`C#C[C@]1(O)CC[C@H]2[C@@H]3CCC4=C/C(=N/NC(=O)c5cccc6c(=O)c7ccccc7[nH]c56)CCC4[C@H]3CC[C@@]21C` (stereo partly drawn): the TGI was more than 100 µM with SR leukemia; more than 100 µM in the experiment with RPMI-8226 leukemia; more than 100 µM with EKVX NSCLC; more than 100 µM with A549 NSCLC; 76.5 µM with UO-31 renal.
`N#CC(CCN1CCC(Nc2ccccc2)(c2nnnn2C2CCCCC2)CC1)(c1ccccc1)c1ccccc1`: the TGI in the experiment with SR leukemia, in the experiment on RPMI-8226 leukemia, in the experiment on EKVX NSCLC, in the experiment with A549 NSCLC and in the experiment with UO-31 renal was more than 100 µM each time.
Consider `Cc1cc(S(=O)(=O)Nc2nc3ncccc3[nH]2)c(S)cc1Cl`, for which the TGI in the experiment with SR leukemia, with RPMI-8226 leukemia, in the experiment with EKVX NSCLC and in the experiment on A549 NSCLC was more than 100 µM in each case.
`CSC(SC)=C(C#N)C(=O)Nc1cccc(Cl)c1`: the TGI in the experiment with EKVX NSCLC and with A549 NSCLC was more than 100 µM each time.
As to `NCCCN(CCCCN(CCCN)C(=O)OCc1ccccc1)C(=O)OCc1ccccc1`, the TGI in the experiment on RPMI-8226 leukemia, in the experiment on EKVX NSCLC, with A549 NSCLC and in the experiment with UO-31 renal was more than 100 µM throughout.
Consider `O=c1[nH]c(=O)n(C2CC(O)C(CO)O2)cc1Oc1ccccc1` (stereo not drawn), for which the TGI in the experiment on SR leukemia, in the experiment with RPMI-8226 leukemia, with EKVX NSCLC, in the experiment on A549 NSCLC and in the experiment on UO-31 renal was more than 100 µM each time.
Regarding `Nc1cc2c(c3ccccc13)C(CCl)CN2C(=O)c1cc2cc(NC(=O)Nc3ccc4[nH]c(C(=O)N5CC(CCl)c6c5cc(N)c5ccccc65)cc4c3)ccc2[nH]1` (stereo not drawn), the TGI was 1.13 µM in the experiment with SR leukemia, more than 23.3 µM with RPMI-8226 leukemia, 6.38 µM in the experiment with EKVX NSCLC and 1.4 µM with UO-31 renal.
Turning to `COc1ccc(C2C3=C(N=C4SC(C(C)=O)=C(C)N42)c2ccccc2CC3)cc1` (stereo not drawn), the TGI in the experiment on RPMI-8226 leukemia was 29.9 µM; with A549 NSCLC it was more than 100 µM; with UO-31 renal it was more than 100 µM.
As for `CC(C)(C)OC(=O)NC12C3C4C1C1C2C3C41NC(=O)OC(C)(C)C` (stereo not drawn), the TGI with SR leukemia, in the experiment with EKVX NSCLC, in the experiment with A549 NSCLC and with UO-31 renal was more than 100 µM each time.
Turning to `CC1=NN(c2cccc(Cl)c2)C2(C1=Cc1ccc(O)cc1)C(Cl)C(=O)N2c1nc2ccccc2s1` (stereo not drawn), the TGI was 57.7 µM in the experiment on SR leukemia, 55.8 µM in the experiment with RPMI-8226 leukemia, more than 100 µM in the experiment with EKVX NSCLC and 30.6 µM with UO-31 renal.
As to `COc1cc2ccc(C(=O)NCCCNC(=O)c3ccc4cc(OC)c(OC)cc4c3)cc2cc1OC`, the TGI with SR leukemia, in the experiment on EKVX NSCLC, in the experiment on A549 NSCLC and in the experiment with UO-31 renal was more than 100 µM in each case.
For the molecule `Cc1nc2cc(F)c(F)cc2[nH]c1=O`, the TGI with RPMI-8226 leukemia, in the experiment with EKVX NSCLC, with A549 NSCLC and in the experiment with UO-31 renal was more than 100 µM each time.
`Cn1cnc(N)c(N=O)c1=O`: the TGI with SR leukemia, in the experiment on RPMI-8226 leukemia, in the experiment on EKVX NSCLC and in the experiment with A549 NSCLC was more than 10 µM in each case.
For `CC1CC/C(=C\c2ccc(F)cc2)C2=C1C(c1ccc(F)cc1)N1C(=O)CSC1=N2` (stereo not drawn), the TGI with RPMI-8226 leukemia, in the experiment with EKVX NSCLC and in the experiment with UO-31 renal was more than 100 µM in each case.
For the molecule `N#C/C(=C/C=C/c1ccco1)C(N)=O`, the TGI with EKVX NSCLC and with UO-31 renal was more than 10 µM each time.
As for `CCc1cccc2c3c([nH]c12)-c1ccccc1NC(=O)C3`, the TGI in the experiment on RPMI-8226 leukemia, in the experiment with EKVX NSCLC, with A549 NSCLC and with UO-31 renal was more than 100 µM in each case.
As for `O=c1c2cc(C(F)(F)F)ccc2sc2c(NCCCNCCO)nc3ccccc3c12`, in the experiment with UO-31 renal, the GI50 is 1.37 µM and the TGI amounted to 2.74 µM.
Turning to `CC1CC[C@@]2(OC1)O[C@H]1[C@H](O)[C@H]3[C@@H]4CC[C@H]5C[C@@H](OC6OC(CO)C(OC7OC(CO)C(O)C(OC8OCC(O)C(O)C8O)C7OC7OC(CO)C(O)C(O)C7OC7OC(CO)C(O)C(O)C7O)C(O)C6O)[C@H](O)C[C@]5(C)[C@H]4CC[C@]3(C)[C@H]1[C@@H]2C` (stereo partly drawn), the TGI in the experiment with RPMI-8226 leukemia is 5.14 µM; in the experiment with EKVX NSCLC, more than 10 µM; in the experiment with A549 NSCLC, more than 10 µM; in the experiment on UO-31 renal, more than 10 µM.
Turning to `COc1cc2cc(C(=O)N3CC(COS(C)(=O)=O)c4ccc(NC(=O)OCc5ccccc5)cc43)[nH]c2c(OC)c1OC` (stereo not drawn), the TGI in the experiment with SR leukemia, in the experiment on EKVX NSCLC, in the experiment on A549 NSCLC and in the experiment on UO-31 renal was more than 100 µM in each case.
In the case of `N#Cc1nc2cc(Cl)ccc2nc1N1CCN(c2ccc([N+](=O)[O-])cc2)CC1`, the TGI in the experiment with RPMI-8226 leukemia, in the experiment on EKVX NSCLC, in the experiment with A549 NSCLC and in the experiment with UO-31 renal was more than 100 µM in each case.
As for `CN(Cc1cnc2nc(N)nc(N)c2n1)c1ccc(C(=O)NC23CC4CC(CC(C4)C2)C3)cc1`, the TGI is more than 100 µM in the experiment with SR leukemia, 70.8 µM with RPMI-8226 leukemia, 32.5 µM with EKVX NSCLC and 24.1 µM in the experiment with UO-31 renal.
Consider `Cc1cc(-n2nnc(C(=O)O)c2-c2ccccc2)c2ccc(Cl)cc2n1`, for which the TGI in the experiment with EKVX NSCLC, in the experiment on A549 NSCLC and with UO-31 renal was more than 100 µM in each case.
For the molecule `Clc1sc(Cl)c2c1[C@@H](Cl)C[C@@H]2Cl`, the TGI in the experiment on SR leukemia, with EKVX NSCLC, in the experiment on A549 NSCLC and with UO-31 renal was more than 100 µM throughout.
As to `CC(C)(C)OC(=O)[C@@H]1CCC(=O)N1C1(c2ccccc2)c2ccccc2-c2ccccc21`, the TGI in the experiment with SR leukemia was 62.3 µM; in the experiment with EKVX NSCLC, more than 100 µM; with A549 NSCLC it was more than 100 µM; in the experiment with UO-31 renal, more than 100 µM.
As to `CC(C)(C)OC(=O)N/C(C=O)=C\C1CCCCC1`, the TGI was 42.8 µM in the experiment with SR leukemia, 35.4 µM with EKVX NSCLC, more than 100 µM with A549 NSCLC and 30.2 µM in the experiment on UO-31 renal.
Take `CNc1nnc(CCCCCCCCc2nnc(NC)o2)o1`: the TGI with EKVX NSCLC, with A549 NSCLC and in the experiment with UO-31 renal was more than 100 µM throughout.
